{"source": "ChEMBL document CHEMBL6177994", "about": "(J Med Chem, 2025)", "key": {"Cytochrome P450 3A4": {"target": "Cytochrome P450 3A4 (Homo sapiens, UniProt P08684)", "sequence (P08684 whole entry)": "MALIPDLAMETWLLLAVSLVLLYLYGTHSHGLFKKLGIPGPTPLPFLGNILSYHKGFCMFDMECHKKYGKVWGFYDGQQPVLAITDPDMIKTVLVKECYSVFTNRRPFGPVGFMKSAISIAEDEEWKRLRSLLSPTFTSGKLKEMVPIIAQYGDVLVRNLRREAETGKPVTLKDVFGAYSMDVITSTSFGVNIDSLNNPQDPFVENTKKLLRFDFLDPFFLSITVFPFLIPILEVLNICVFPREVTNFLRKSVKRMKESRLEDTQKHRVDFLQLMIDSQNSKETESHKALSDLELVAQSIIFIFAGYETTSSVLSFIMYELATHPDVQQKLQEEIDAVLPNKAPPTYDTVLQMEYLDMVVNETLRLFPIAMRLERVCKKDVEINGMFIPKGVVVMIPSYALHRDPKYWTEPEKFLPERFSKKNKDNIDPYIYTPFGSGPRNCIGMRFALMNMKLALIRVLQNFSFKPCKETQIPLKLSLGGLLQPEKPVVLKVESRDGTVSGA", "assay": "Inhibition of CYP3A4 in human liver microsomes using testosterone as substrate at 10 uM incubated for 15 mins in presence of NADPH by LC/MS analysis", "assay_type": "ADME, Microsome", "settings": "0.25 h"}, "AGS": {"test_system": "AGS", "assay": "PROTAC activity at CRBN/KRAS G12D mutant in human AGS cells assessed as induction of KRAS G12D mutant degradation 0.01 to 100 nM measured after 24 hrs by immunoblot analysis", "assay_type": "cell-based", "settings": "dose 0.01-100 nM"}, "[1]": {"assay": "Antitumor activity against human PK-59 cells xenografted in female Balb/c nude mouse model assessed as tumor growth inhibition at 0.1 mg/kg, iv QW measured after 28 days relative to control", "assay_type": "functional", "settings": "PK-59, 672 h, time 28 day, read-out: TGI"}, "[2]": {"assay": "Antiproliferative activity against human GP2d cells harbouring KRAS G12D mutant assessed as inhibition of cell growth measured after 72 hrs by Cell titer glo method", "assay_type": "functional, cell-based"}, "[3]": {"assay": "Half life in male ICR mouse plasma at 10 mg/kg, iv measured after 72 hrs by LC-MS/MS analysis", "assay_type": "ADME, organism-based"}, "[4]": {"test_system": "Protein cereblon/GTPase KRas (Homo sapiens), P01116+Q96SW2 [G12D]", "sequence (P01116 whole entry G12D)": "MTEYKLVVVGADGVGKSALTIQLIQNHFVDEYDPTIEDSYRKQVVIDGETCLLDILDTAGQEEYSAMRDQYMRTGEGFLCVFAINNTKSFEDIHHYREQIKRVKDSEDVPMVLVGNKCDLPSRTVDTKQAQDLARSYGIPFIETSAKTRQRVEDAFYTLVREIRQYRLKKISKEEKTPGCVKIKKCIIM", "sequence (Q96SW2 whole entry partner)": "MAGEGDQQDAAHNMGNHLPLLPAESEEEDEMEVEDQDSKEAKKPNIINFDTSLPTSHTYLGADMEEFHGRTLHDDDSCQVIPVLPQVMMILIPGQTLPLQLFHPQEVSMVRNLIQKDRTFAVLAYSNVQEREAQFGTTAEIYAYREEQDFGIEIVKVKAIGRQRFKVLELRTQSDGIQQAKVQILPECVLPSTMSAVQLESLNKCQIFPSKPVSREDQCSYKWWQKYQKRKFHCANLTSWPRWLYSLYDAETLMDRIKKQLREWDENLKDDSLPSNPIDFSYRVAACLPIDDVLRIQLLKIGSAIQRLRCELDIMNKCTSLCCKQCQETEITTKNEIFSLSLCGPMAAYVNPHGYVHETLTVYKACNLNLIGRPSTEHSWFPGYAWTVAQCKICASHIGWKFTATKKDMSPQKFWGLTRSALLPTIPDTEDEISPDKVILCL", "assay": "PROTAC activity at CRBN/KRAS G12D mutant in human ASPC1 cells assessed as induction of KRAS G12D mutant degradation 0.01 to 100 nM measured after 24 hrs by immunoblot analysis relative to control", "assay_type": "cell-based", "settings": "dose 0.01-100 nM"}, "A-427": {"test_system": "A-427", "assay": "Antiproliferative activity against human A-427 cells harbouring KRAS G12D mutant assessed as inhibition of cell growth measured after 72 hrs by Cell titer glo method", "assay_type": "functional, cell-based"}, "[5]": {"test_system": "Protein cereblon/GTPase KRas (Homo sapiens), P01116+Q96SW2 [G12D]", "assay": "PROTAC activity at CRBN/KRAS G12D mutant in human ASPC1 cells assessed as induction of KRAS G12D mutant degradation at 5 nM preincubated with MG132 followed by compound addition and measured after 24 hrs by Western blot analysis", "assay_type": "cell-based"}, "[6]": {"assay": "Antitumor activity against human Panc 04.03 cells harbouring KRAS G12D mutant xenografted in female Balb/c nude mouse model assessed as tumor regression at 1 to 10 mg/kg, iv QW administered weekly and measured after 28 days relative to control", "assay_type": "functional", "settings": "dose 1-10 mg/kg, time 28 day"}, "GTPase KRas": {"target": "GTPase KRas (Homo sapiens, UniProt P01116, G12D)", "sequence (P01116 whole entry G12D)": "as the sequence (P01116 whole entry G12D) above", "assay": "Binding affinity to 6 His-tagged GDP-loaded human KRAS G12D mutant assessed as GDP-GTP exchange preincubated for 30 mins followed by GTP addition for 30 mins by HTRF method"}, "PSN1": {"test_system": "PSN1", "assay": "Antiproliferative activity against human PSN1 cells harbouring KRAS G12R mutant assessed as inhibition of cell growth measured after 72 hrs by Cell titer glo method", "assay_type": "functional, cell-based"}, "NCI-H727": {"test_system": "NCI-H727", "assay": "Antiproliferative activity against human NCI-H727 cells harbouring KRAS G12V mutant assessed as inhibition of cell growth measured after 72 hrs by Cell titer glo method", "assay_type": "functional, cell-based"}, "Cytochrome P450 2C19": {"target": "Cytochrome P450 2C19 (Homo sapiens, UniProt P33261)", "sequence (P33261 whole entry)": "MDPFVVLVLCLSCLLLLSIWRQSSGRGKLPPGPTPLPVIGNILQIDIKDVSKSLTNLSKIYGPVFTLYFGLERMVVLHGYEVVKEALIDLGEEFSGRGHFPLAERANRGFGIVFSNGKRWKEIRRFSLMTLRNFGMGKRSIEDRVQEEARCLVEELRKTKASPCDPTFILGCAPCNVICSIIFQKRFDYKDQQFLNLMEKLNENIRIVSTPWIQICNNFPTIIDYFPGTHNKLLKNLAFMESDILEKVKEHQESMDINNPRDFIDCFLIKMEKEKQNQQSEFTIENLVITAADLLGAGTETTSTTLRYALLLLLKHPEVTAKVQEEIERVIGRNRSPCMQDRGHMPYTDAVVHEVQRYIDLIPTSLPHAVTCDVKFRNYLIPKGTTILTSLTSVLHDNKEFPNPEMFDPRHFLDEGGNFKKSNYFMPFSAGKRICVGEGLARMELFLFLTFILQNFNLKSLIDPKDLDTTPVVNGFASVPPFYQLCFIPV", "assay": "Inhibition of CYP2C19 in human liver microsomes using S-mephenytoin as substrate at 10 uM incubated for 15 mins in presence of NADPH by LC/MS analysis", "assay_type": "ADME, Microsome", "settings": "0.25 h"}, "[7]": {"assay": "Half life in male Sprague-Dawley rat at 1 mg/kg, iv measured up to 24 hrs by LC-MS/MS analysis", "assay_type": "ADME, organism-based", "settings": "in vivo"}, "[8]": {"assay": "Plasma protein binding in human at 2 uM by LC-MS/MS analysis", "assay_type": "ADME, cell-free", "settings": "read-out: PPB"}, "[9]": {"assay": "Drug concentration in male ICR mouse plasma at 10 mg/kg, iv measured after 0.25 hrs by LC-MS/MS analysis", "assay_type": "ADME, organism-based"}, "[10]": {"target": "Protein cereblon/GTPase HRas (Homo sapiens) (UniProt P01112+Q96SW2)", "sequence (P01112 whole entry, looked up)": "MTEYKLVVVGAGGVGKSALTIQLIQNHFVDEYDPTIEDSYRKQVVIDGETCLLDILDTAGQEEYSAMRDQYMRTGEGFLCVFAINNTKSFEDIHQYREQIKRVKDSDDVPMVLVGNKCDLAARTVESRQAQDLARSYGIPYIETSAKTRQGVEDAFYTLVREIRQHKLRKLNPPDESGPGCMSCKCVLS", "sequence (Q96SW2 whole entry, looked up)": "as the sequence (Q96SW2 whole entry partner) above", "assay": "PROTAC activity at CRBN/HRAS in human MKN-1 cells assessed as […] degradation 0.061 to 1000 nM measured after 24 hrs by immunoblot analysis", "assay_type": "cell-based", "settings": "dose 0.061-1000 nM"}, "Cytochrome P450 2C9": {"target": "Cytochrome P450 2C9 (Homo sapiens, UniProt P11712)", "sequence (P11712 whole entry)": "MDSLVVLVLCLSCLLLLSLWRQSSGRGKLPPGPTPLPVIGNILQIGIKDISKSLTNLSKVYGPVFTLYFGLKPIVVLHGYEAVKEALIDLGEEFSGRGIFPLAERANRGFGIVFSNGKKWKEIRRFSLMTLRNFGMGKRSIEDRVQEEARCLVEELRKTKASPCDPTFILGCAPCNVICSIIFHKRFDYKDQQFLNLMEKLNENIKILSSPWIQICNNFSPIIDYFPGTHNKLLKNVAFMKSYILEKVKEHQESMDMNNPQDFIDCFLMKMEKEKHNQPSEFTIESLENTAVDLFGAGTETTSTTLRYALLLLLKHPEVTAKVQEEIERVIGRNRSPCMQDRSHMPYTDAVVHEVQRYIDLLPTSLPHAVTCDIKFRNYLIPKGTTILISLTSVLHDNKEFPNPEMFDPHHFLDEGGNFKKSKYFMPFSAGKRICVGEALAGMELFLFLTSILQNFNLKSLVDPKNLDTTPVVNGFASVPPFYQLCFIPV", "assay": "Inhibition of CYP2C9 in human liver microsomes using diclofenac as substrate at 10 uM incubated for 15 mins in presence of NADPH by LC/MS analysis", "assay_type": "ADME, Microsome", "settings": "0.25 h"}, "[11]": {"assay": "Plasma protein binding in dog at 2 uM by LC-MS/MS analysis", "assay_type": "ADME, cell-free, Canis lupus familiaris", "settings": "read-out: PPB"}, "[12]": {"test_system": "Protein cereblon/GTPase KRas (Homo sapiens), P01116+Q96SW2 [G12D]", "assay": "PROTAC activity at CRBN/KRAS G12D mutant in human ASPC1 cells assessed as induction of KRAS G12D mutant degradation at 5 nM preincubated with MRTX1133 followed by compound addition and measured after 24 hrs by Western blot analysis", "assay_type": "cell-based"}, "[13]": {"assay": "Half life in male ICR mouse at 1 mg/kg, iv measured up to 24 hrs by LC-MS/MS analysis", "assay_type": "ADME, organism-based", "settings": "in vivo"}, "[14]": {"test_system": "Protein cereblon/GTPase KRas (Homo sapiens), P01116+Q96SW2 [G12D]", "assay": "In vivo PROTAC activity at CRBN/KRAS G12D mutant in male Balb/c nude mouse xenografted with human PK-59 cells assessed as increase in cleaved caspase 7 level at 10 mg/kg, iv measured after 24 hrs relative to control", "assay_type": "functional, organism-based"}, "[15]": {"assay": "Clearance in male Beagle dog at 1 mg/kg, iv measured up to 24 hrs by LC-MS/MS analysis", "assay_type": "ADME, organism-based, Canis lupus familiaris", "settings": "in vivo"}, "[16]": {"test_system": "Protein cereblon/GTPase KRas (Homo sapiens), P01116+Q96SW2 [G12D]", "assay": "In vivo PROTAC activity at CRBN/KRAS G12D mutant in male Balb/c nude mouse xenografted with human PK-59 cells assessed as reduction in DUSP4 level in tumor at 10 mg/kg, iv measured up to 168 hrs relative to control", "assay_type": "functional, organism-based", "set-up": "scale not given: the % may be the effect or the level left"}, "[17]": {"assay": "Plasma protein binding in monkey at 2 uM by LC-MS/MS analysis", "assay_type": "ADME, cell-free, Macaca mulatta", "settings": "rhesus monkey, read-out: PPB"}, "[18]": {"assay": "Stability in monkey plasma assessed as half life at 1 uM measured up to 120 mins by LC-MS/MS analysis", "assay_type": "ADME, cell-free, Macaca mulatta", "settings": "rhesus monkey"}, "[19]": {"assay": "Metabolic stability in dog liver microsomes assessed as intrinsic clearance at 1 uM preincubated for 3 mins with NADPH and measured up to 60 mins by LC-MS/MS analysis", "assay_type": "ADME, Canis lupus familiaris, Microsome", "settings": "time < 63 min, read-out: CLH"}, "[20]": {"assay": "Metabolic stability in rat liver microsomes assessed as intrinsic clearance at 1 uM preincubated for 3 mins with NADPH and measured up to 60 mins by LC-MS/MS analysis", "assay_type": "ADME, Microsome", "settings": "time < 63 min, read-out: CLH"}, "[21]": {"target": "Protein cereblon/GTPase KRas (Homo sapiens, UniProt P01116+Q96SW2, G12D)", "sequence (P01116 whole entry G12D, stated change not applied)": "as the sequence (P01116 whole entry G12D) above", "sequence (Q96SW2 whole entry, stated change not applied)": "as the sequence (Q96SW2 whole entry partner) above", "assay": "PROTAC activity at CRBN/KRAS G12D mutant in human ASPC1 cells assessed as induction of KRAS G12D mutant degradation measured after 24 hrs by immunoblot analysis", "assay_type": "cell-based"}, "[22]": {"assay": "Inhibition of Raf (unknown origin)/GTP loaded KRas G12D mutant interaction preincubated for 15 mins followed by anti-tag1-eu3 and Tag2-XL665 antibody addition and measured for 120 mins by HTRF method", "set-up": "species or system Homo sapiens"}, "[23]": {"assay": "Drug concentration in male Balb/c nude mouse tumor xenografted with human PK-59 cells at 10 mg/kg, iv administered as single dose measured after 6 hrs by LC-MS/MS analysis", "assay_type": "ADME, organism-based, Neoplasm", "settings": "read-out: Ct"}}, "note": "Calls of active or inactive are those of the source. The calls are words filed in the database; no cut-off is given here.", "data": [{"compound": "C#Cc1c(F)ccc2cc(O)cc(-c3ncc4c(N5CC6CCC(C5)N6)nc(OCC5(CN6CCC7(CC6)CC(N6CCC(c8cc9c(cc8F)c(N8CCC(=O)NC8=O)nn9C)CC6)C7)CC5)nc4c3F)c12", "values": [{"measurement": "inhibition (INH)", "setting": "Cytochrome P450 3A4", "value": "Not_active"}, {"measurement": "Activity", "setting": "AGS", "value": "Active"}, {"measurement": "inhibition in vivo at 0.1 mg/kg", "setting": "[1]", "value": 81.4, "unit": "%"}, {"measurement": "IC50", "setting": "[2]", "value": 0.19, "unit": "nM"}, {"measurement": "half-life", "setting": "[3]", "value": 15.1, "unit": "h"}, {"measurement": "Emax", "setting": "[4]", "value": 89, "unit": "%"}, {"measurement": "Activity", "setting": "A-427", "value": "Active; Compound Showed Stronger Antiproliferative Activity Compared To Mrtx1133"}, {"measurement": "Activity", "setting": "[5]", "value": "inactive"}, {"measurement": "Activity", "setting": "[6]", "value": ">30", "unit": "%"}, {"measurement": "IC50", "setting": "GTPase KRas", "value": 6.34, "unit": "nM"}, {"measurement": "Activity", "setting": "PSN1", "value": "Weak_effect; Compound Showed Weaker Potency In Antiproliferative Activity Compared To Mrtx1133"}, {"measurement": "Activity", "setting": "NCI-H727", "value": "Weak_effect; Compound Showed Weaker Potency In Antiproliferative Activity Compared To Mrtx1133"}, {"measurement": "inhibition (INH)", "setting": "Cytochrome P450 2C19", "value": "Not_active"}, {"measurement": "half-life", "setting": "[7]", "value": 9.63, "unit": "h"}, {"measurement": "fraction unbound at 2 µM", "setting": "[8]", "value": "< 0.05"}, {"measurement": "concentration at 0.25 h", "setting": "[9]", "value": 903, "unit": "ng/mL"}, {"measurement": "Activity", "setting": "[10]", "value": "inactive"}, {"measurement": "inhibition (INH)", "setting": "Cytochrome P450 2C9", "value": "Not_active"}, {"measurement": "fraction unbound at 2 µM", "setting": "[11]", "value": "< 0.05"}, {"measurement": "Activity", "setting": "[12]", "value": "Active"}, {"measurement": "half-life", "setting": "[13]", "value": 8.82, "unit": "h"}, {"measurement": "Activity", "setting": "[14]", "value": "> 100", "unit": "%"}, {"measurement": "clearance", "setting": "[15]", "value": 33, "unit": "mL/min/kg"}, {"measurement": "Activity", "setting": "[16]", "value": 6.1, "unit": "%"}, {"measurement": "fraction unbound at 2 µM", "setting": "[17]", "value": "< 0.05"}, {"measurement": "half-life at 1 µM", "setting": "[18]", "value": 12.8, "unit": "h"}, {"measurement": "CLint scaled at 1 µM", "setting": "[19]", "value": 4.6, "unit": "mL/min/kg"}, {"measurement": "CLint scaled at 1 µM", "setting": "[20]", "value": 16.6, "unit": "mL/min/kg"}, {"measurement": "DC50", "setting": "[21]", "value": 0.6, "unit": "nM"}, {"measurement": "IC50", "setting": "[22]", "value": 3.23, "unit": "nM"}, {"measurement": "concentration at 6 h", "setting": "[23]", "value": 1040, "unit": "ng/g"}]}]}
